Data set [1] has as its system MON, G401, BT-12, BT-16 DAOY and D283 cells. Briefly: Senescence beta galactosidase assay. It is filed as cell-based, human. The following applies: 100 nM, 48 hours; all cell lines. The protocol: For each cell line, cells were seeded in 6-well plates in triplicates with 100,000 cells per well. Treatment medium was added the next day and incubated for 48 or 72 hrs. After incubation, cells were washed twice with 1×PBS and 1 mL of the Fixation Buffer from the kit was added to each well of the plate and incubated at RT for 5 min. Cells were washed with 1×PBS and 1 mL of staining solution from the kit was added to each well and incubated at 37° C. without CO2 overnight. The next day, the cells were washed with 1×PBS and the numbers of blue stained cells (which indicate senescent cells) and unstained cells were counted in image J (www.imagej.nih.gov). The percentage of senescent cells was calculated.

Data set [2] relates to DAOY and D283 cells. Nature of the data set: MTT proliferation assay, MB cell lines. It is filed as cell-based, human. The following applies: 72 hours of treatment vs 0.1% DMSO. The protocol:
To evaluate cell proliferation, we used TACS MTT Cell Proliferation Assays (Trevigen, USA). We plated 2×10^3 cells on each well of a 96-well plate and the absorbance was measured after 48 and 72 hr at concentrations of 10, 50, 100, 200, and 500 nM. Each experiment was performed in triplicates.
(§1) For proliferation assay DAOY was plated with 5×10^4 cells per well and D283 was plated with 5×10^5 cells per well.
In general terms: Formazan colour is commonly taken as a measure of viable cells.

The next data set has as its system DAOY MB cells. Briefly: Confluency assay (IncuCyte ZOOM). It is filed as cell-based, human. The following applies: increasing concentrations, 48 hour period, p-value=0.029. As to the method:
For further evaluation of the effect of the PLK4 inhibitor over tumor cell proliferation, confluency was measured over a 48 hour period. MON, BT-12, G401 and DAOY cells were plated in 96-well plates with a density of 6×10^4 per well. […] Confluency was monitored for 48 hours by taking phase contrast images every 2 hours and measured using an IncuCyte ZOOM system (Essen BioScience, USA). Experiments were performed in triplicates.

The conditions of data set [3]: phase I, adults, preliminary results; cited from earlier work.
Data set [4] relates to DAOY and D283 cells. Briefly: Colony formation assay, MB cell lines. It is filed as cell-based, human. The settings on record: 50 nM. The protocol: For each cell line, 200 cells were seeded into six-well plates, incubated for 14 days, fixed with formalin, stained with Cresyl violet (ACROS Organics, USA), and the number of colonies counted using Image J software (www.imagej.nih.gov).
as §1

Another data set has as its target AURKC (Homo sapiens, UniProt Q9UQB9). Nature of the data set: Kinase activity screening (SelectScreen Kinase Profiling). Type of data set: biochemical. The settings on record: read-out: kinase activity inhibited.
The subject of another data set is normal breast cells. The settings on record: Sampson et al.; cited from earlier work.
In data set [5] the test system is CYP450 isoenzymes 1A2, 2B6, 2C8, 2C9, 2C19, 2D6, 2J2, 3A4 and 3A5 (except 3A4 BOMCC). Briefly: P450 profiling with Vivid substrates. Type of data set: in vitro ADME. The following applies: human, probe Vivid substrates; isoenzymes recommended for testing by FDA guidance except 3A4 BOMCC; 500 nM highest tested concentration.
For data set [6], the system named is MON, G401, BT-12 and BT-16 cells. Nature of the data set: Apoptosis by flow cytometry (Annexin V / PI). It is filed as cell-based, human. The following applies: 100 nM, 48 hours vs 0.1% DMSO. The protocol:
Cells were treated with various concentrations of […] and 0.1% DMSO (control) for evaluation of the impact of treatment on induction of apoptosis. Live cells were stained with Annexin V as an indicator of early apoptosis and Propidium Iodide (PI—Thermo Fisher Scientific, USA) for detection of late apoptosis and necrosis, according to manufacturer's instructions (Thermo Fisher Scientific, USA). Flow cytometric analysis was performed on a BD Fortessa instrument (BD Biosciences, USA) within an hour of staining. Data was analyzed using Modfit LT from Verity Software House. All experiments were performed in triplicates.
Background: Flow cytometry measures light scatter and fluorescence of single cells or particles in a stream.

The subject of data set [7] is BT-12 AT/RT intracranial xenografts. Nature of the data set: Intracranial AT/RT xenograft tumors. It is filed as in vivo, mice. The settings on record: 7.5 mg/kg/day oral for 21 days. The text has this:
Six-week-old female athymic mice (rnu/rnu genotype, BALB/c background) were purchased from Envigo (Harlan) and housed under aseptic conditions, which included filtered air and sterilized food, water, bedding, and cages. The Northwestern University Institutional Animal Care and Use Committee approved all animal protocols. The BT-12 AT/RT cell line, which has high expression of PLK4 was modified to express luciferase and injected intracranially in nude mice as previously described. Each mouse was injected with a cell suspension (10,000 cells/3 μL) into the right caudate putamen of the brain. […] Bioluminescence monitoring was performed twice a week throughout the course of the experiment for quantitative measurement of tumor growth and response to therapy. Kaplan-Meier survival analysis was performed to assess survival benefit within the treatment group as compared to controls. Differences between survival curves were calculated using a log-rank test. Brains were resected at 6 hours following completion of the treatment and placed in 4% paraformaldthyde for subsequent histological examination.

The next data set has as its target MUSK (Homo sapiens, UniProt O15146). Nature of the data set: Kinase activity screening (SelectScreen Kinase Profiling). It is filed as biochemical. The settings on record: 10-point titration.
Data set [8] has as its system DAOY and D283 cells. Briefly: Migration and invasion assays, MB cell lines. The following applies: 100 nM, 24 hour vs 0.1% DMSO. It is filed as cell-based, human. As to the method:
Both migration and invasion were assessed using a 24-well Transwell chamber system (Corning, USA).[35] MON cells were plated at 20,000 per well for cell migration and at 50,000 per well coated with matrigel (200 μg/ml, 3 hr of solidification) for cell invasion. HFF-SCC058 cells were used as negative controls. […] All experiments were performed in triplicates.
as §1

Data set [9] concerns HFF-SCC058 non-neoplastic human fibroblast cells. Briefly: Immunofluorescence for gamma-tubulin (centriole number). Type of data set: cell-based. The following applies: 100 and 500 nM. The protocol: The cells were then blocked in blocking buffer (5% BSA (Jackson Immuno Research Laboratories Inc., USA) in PBST) for 1 hour at RT. The primary antibody ([…] 1:500, Sigma, USA) diluted in 1% BSA in PBST was then added and incubated at 4° C. overnight. Then, the cells were washed with 1×PBS thrice. Secondary antibody (Anti-Rabbit IgG (H+L) F (ab′) 2, 1:500, Sigma, USA) diluted in 1% BSA in PBST was added and incubated at RT for 2 hours. Three time washes with IX PBS were performed. Then, 1 mL of DAPI (Thermo Fisher Scientific, USA) in PBS (0.5 μl of DAPI in 10 ml PBS) was added to the cells and incubated for 10 min at RT. Finally, 3 time washes with 1×PBS were performed and slides were mounted using Mounting Medium (Thermo Fisher Scientific, USA).

Bounds are passed on as bounds.

Usually IC50 stands for the midpoint of a concentration-inhibition curve. A low value points to greater potency in that assay.

Chain of MUSK (O15146 24-869): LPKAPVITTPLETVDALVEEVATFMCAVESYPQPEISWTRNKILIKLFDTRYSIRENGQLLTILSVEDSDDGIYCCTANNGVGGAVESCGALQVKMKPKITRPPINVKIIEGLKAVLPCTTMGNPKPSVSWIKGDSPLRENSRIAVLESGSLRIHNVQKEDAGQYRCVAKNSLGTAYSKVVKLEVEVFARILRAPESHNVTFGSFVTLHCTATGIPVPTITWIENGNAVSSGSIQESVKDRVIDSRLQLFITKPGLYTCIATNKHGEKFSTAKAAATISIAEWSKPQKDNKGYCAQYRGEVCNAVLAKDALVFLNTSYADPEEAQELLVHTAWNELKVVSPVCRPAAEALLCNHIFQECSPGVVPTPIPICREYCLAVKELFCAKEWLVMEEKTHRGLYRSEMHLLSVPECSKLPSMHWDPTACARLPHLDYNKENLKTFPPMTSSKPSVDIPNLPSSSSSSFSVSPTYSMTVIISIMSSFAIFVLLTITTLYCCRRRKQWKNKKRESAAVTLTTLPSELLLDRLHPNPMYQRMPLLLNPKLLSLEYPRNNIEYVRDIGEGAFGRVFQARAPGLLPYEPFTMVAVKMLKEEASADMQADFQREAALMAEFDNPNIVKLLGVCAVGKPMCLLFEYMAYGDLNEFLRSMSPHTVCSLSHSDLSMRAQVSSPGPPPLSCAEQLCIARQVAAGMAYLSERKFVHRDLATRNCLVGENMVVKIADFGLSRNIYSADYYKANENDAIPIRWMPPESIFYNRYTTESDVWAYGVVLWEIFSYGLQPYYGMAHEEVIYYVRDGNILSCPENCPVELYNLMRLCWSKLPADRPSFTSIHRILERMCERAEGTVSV
Chain of AURKC (Q9UQB9 whole entry): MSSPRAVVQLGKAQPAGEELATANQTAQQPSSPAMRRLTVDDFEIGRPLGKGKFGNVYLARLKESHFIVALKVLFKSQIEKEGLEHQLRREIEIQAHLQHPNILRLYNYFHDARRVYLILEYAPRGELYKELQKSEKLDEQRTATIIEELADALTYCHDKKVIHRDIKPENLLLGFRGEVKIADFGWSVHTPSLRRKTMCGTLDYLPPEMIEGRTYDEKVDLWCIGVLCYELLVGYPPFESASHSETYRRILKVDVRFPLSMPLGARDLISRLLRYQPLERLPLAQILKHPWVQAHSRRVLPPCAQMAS
Excerpt for AURKC: (§2) These assays utilized various formats appropriate to the kinase, its substrate and its activity. Formats included the Z-LYTE™ Kinase Assay that determines the differential sensitivity of phosphorylated and non-phosphorylated peptide substrates to proteolytic cleavage using a FRET-based readout, the Adapta™ Universal Kinase Assay that employs a homogeneous, fluorescence-based immunoassay for the detection of ADP produced by kinases and the LanthaScreen™ Eu Kinase Binding Assay that utilizes an Alexa Fluor™ conjugated “tracer” and an Eu-labeled anti-tag antibody to measure binding of a compound to the kinase target [62].
Excerpt for MUSK: as §2

As to `COc1ccc2c(c1)[C@]1(C[C@H]1c1ccc3c(/C=C/c4ccc(CN5C[C@@H](C)O[C@@H](C)C5)cc4)n[nH]c3c1)C(=O)N2` [CFI-400945], the senescent cells entry in [1] is “significant increase of senescent cells”. Besides, the “cell proliferation (MTT)” value with DAOY and D283 cells [2] is reported as “significantly decreased proliferation”. The “delay in reaching confluency (FC)” value in the data set with DAOY MB cells is recorded as 1.70. Further, in [3], the tolerability result is listed as “well tolerated at doses up to 72 ma”. In addition, the colony formation entry with DAOY and D283 cells [4] was “Complete inhibition of colony formation”. Besides, the inhibition at 0.5 µM on AURKC was 84%. Also, the “effect on normal breast cells” value with normal breast cells was “unaffected”. Further, the concentration for half-maximal inhibition (IC50) in [5] is above 0.5 µM; against MUSK, 0.0487 µM. Further, the “cells undergoing cell death (apoptosis)” value in data set [6] is “significantly higher percentage of cells undergoing cell death”. Further, the “growth of intracranial AT/RT tumors (bioluminescence)” value in data set [7] (p=0.0146) is “significantly reduced the growth”. Besides, in data set [7] (p=0.0477, log-rank), the survival entry was “extended the survival”. Besides, in the data set with DAOY and D283 cells [8], the “cell migration and invasion” value was “significant decrease in cell migration and invasion”. The “paradoxical effect on centriole number” value in data set [9] is “not observed”.

These data come from US11197863B2, “Inhibitors of polo-like kinase 4 (PLK4) for treating pediatric embryonal tumors” (ANN AND ROBERT H. LURIE CHILDREN'S HOSPITAL OF CHICAGO, priority 2017, dated 2021).
